Results taken from patent US20140141503A1, “CELL CULTURE SUBSTRATE HAVING UNIFORM SURFACE COATING” (Corning Incorporated, priority 2012, published 2014).

Assay: Compound extraction (loss) from PBS buffer by PDMS coating, UV-VIS at 260 nm
Type: physicochemical
Settings: 200 μL of 200 μM Nefazodone-PBS, 24 hours, less than 0.8 mg of PDMS in 200 μL PBS (volume ratio PDMS to buffer less than 1/250)
Method: Nefazodone is a small hydrophobic compound that can be readily extracted from aqueous buffer by PDMS following a partition function rule, which means the loss of Nefazodone […] with the amount of PDMS present in a given volume of buffer. In order to determine the safe quantity of PDMS for use with 200 μL of PBS buffer, 200 μL of a 200 μM Nefazodone-PBS solution was incubated in wells (formed generally as described above in EXAMPLE 4) containing varying PDMS coating amounts from 0.005 mg to 4 mg per well for 24 hours. After 24 hours the Nefazodone that remained in the PBS buffer was measured by UV-VIS adsorption at 260 nm. The results shown in FIG. 11 indicate that the loss of Nefazodone is negligible in the presence of less than 0.8 mg of PDMS in 200 μL of PBS buffer (meaning volume ratio of PDMS to buffer is less than 1/250).

loss of Nefazodone from PBS buffer: negligible
Structure (SMILES): CCc1nn(CCCN2CCN(c3cccc(Cl)c3)CC2)c(=O)n1CCOc1ccccc1 [Nefazodone]
